# Results: patent US20250161346A1, “METHODS FOR TREATING HEPATITIS B VIRUS INFECTION” (KAOHSIUNG MEDICAL UNIVERSITY, priority 2022, published 2025)
# Entries after “also recorded” stand apart in the source; their conditions may differ.
# Legend:
# [1] = system: HBV; assay: HBV virion secretion assay, HuH-7 cells transfected with HBV replicon, native agarose gel with Western and Southern blot; assay type: cell-based, hepatitis B virus
# Protocol: (§1) FIGS. 6A and 6B show a cartoon illustration for the analysis methods of extracellular and intracellular HBV viral and subviral particles. […] Viral and subviral particles are separated and characterized by Southern and Western blot analyses. Anti-HBc and anti-HBs antibodies are used consecutively for the same Western blot filters. Southern blot is performed in a separate agarose gel which allows the differentiation of genome-containing (G^+) from genome-free (G^−) viral and subviral particles. […] Then, the RNA/DNA signals are analyzed by Northern blot and Southern blot. 3.5 kb pgRNA: full-length 3.5 kb pre-genomic RNA. RT RNA: reverse transcripted RNA.
# (§2) This mutant secretes no naked capsids. V/NC: Virions/naked capsids.
# An HBV replicon plasmid is transfected into HuH-7 human hepatoma cell line. SINE compound KPT-8602 is added to the transfected culture at 0 hr post-transfection (i.e., co-treatment). Extracellular media are collected on day 5 (120 hr) post-transfection. Assays for virion secretion are as described in FIG. 6A. Secretion of naked capsids is 100-fold (10 μM/0.1 μM) less sensitive to KPT-8602 treatment than virions.
# (§3) HBV secreted a total of six different viral and subviral particles in hepatocyte cell culture (FIG. 5). The only infectious particles were the genome-containing virions, which contained envelope protein, capsids, and encapsidated relaxed circle DNA genome. In FIGS. 6A and 6B, a cartoon illustrated the analysis methods of extracellular and intracellular HBV viral and subviral particles. […] Adding drug at 1-day post infection was not effective in blocking virion secretion (FIG. 7C). The potential cytotoxicity of KPT-335 was evaluated using two different methods—Alamar Blue and CCK-8 assays (FIG. 8).
# [2] = system: HuH-7 cells; assay: Cell proliferation by alamarBlue and CCK-8 assays; assay type: cell-based, human
# Description: as §3
# [3] = system: human cytomegalovirus (HCMV); details: by increasing the expression of type I interferon; cited from earlier work
# [4] = system: Kaposi's sarcoma-associated herpesvirus (KSHV); details: cited from earlier work
# [5] = system: HBV; assay: ELISA of HBsAg and HBeAg in medium, time course of drug treatment in HBV infection system (HepG2-NTCP-AS cells); assay type: cell-based, hepatitis B virus
# Protocol: (§4) However, HBc is strongly arrested in the nucleus by about 150-fold at 9 dpi, when co-treated with compounds KPT-330 or KPT-335. These two drugs are CRM1 inhibitors. Green: HBc. Red: NTCP. Blue: DAPI. […] Briefly, the infected culture of HepG2-NTCP-AS cells are treated with KPT-335 (0.5-1 μM) at 0, 3, and 5 dpi continuously until cell harvesting. Media are collected for ELISA of HBsAg and HBeAg. Cells are harvested for further analysis by Southern blot (SB) and Northern blots (NB). […] The level of total cytoplasmic viral RNA is reduced moderately by treatment with SINE compounds (1 μM). Comparisons of relaxed circular (RC) DNA banding intensities are as described in FIGS. 1A-1B legend, and normalized here to the no drug treatment control. SS: […].
# (§5) The results in FIGS. 1A-1B by genetic mutant analysis was also supported by the results from the CRM1 drug treatment experiment (FIGS. 2A-2F). KPT-330 and KPT-335 are known CRM1 inhibitors. In an HBV in vitro infection system, when KPT-330 or KPT-335 were added to the cell culture before or soon after the infection with HBV, HBc was strongly arrested in the nucleus by immunofluorescence microscopy (FIG. 2A). Relative to the control with no drug treatment, KPT-330 and KPT-335 could increase nuclear HBc by approximately 150-fold (FIG. 2B). HBsAg and HBeAg were HBV serum markers.
# [6] = system: HBV; assay: Southern and Northern blot analyses of HBV DNA synthesis and capsid-associated pgRNA in the infection assay; assay type: cell-based, hepatitis B virus; details: cotreatment, 0.5-1 μM
# Protocol: as §4, §5
# [7] = system: HBV; assay: Intracellular WT-HBV capsid protein, capsid-associated viral RNA and DNA in the dose-response experiment; assay type: cell-based, hepatitis B virus; details: 0.5 μM
# Protocol: as §1, §2, §3
# [8] = drug and virus added at the same time (co-treatment), 0.5-1 μM
compound,measurement,setting,value
"NC(=O)/C(=C/n1cnc(-c2cc(C(F)(F)F)cc(C(F)(F)F)c2)n1)c1cncnc1 [KPT-8602, Eltanexor]",HBV virion secretion,"[1]; 0.1 μM, co-treatment at 0 hr post-transfection, media collected day 5",blocks; also recorded: nearly completely block
same,"inhibition of HBV virion secretion, side-by-side comparison","[1]; 0.1, 0.25, 0.5 and 1 μM",more inhibitory than KPT-335
same,"secretion of naked capsids, sensitivity in contrast to virions","[1]; 0.1, 0.25, 0.5 and 1 μM",much less sensitive
same,"potency, side-by-side comparison","[1]; HBV virion secretion, HuH-7",more potent
same,secretion of naked capsids less sensitive than virions (10 μM/0.1 μM),"[1]; HuH-7, co-treatment, day 5",100 fold
same,"cytotoxicity, side-by-side comparison",[2],less cytotoxic
same,inhibition of human cytomegalovirus (HCMV),[3],inhibit
same,lytic replication of KSHV,[4],reduced
"O=C(/C=C\n1cnc(-c2cc(C(F)(F)F)cc(C(F)(F)F)c2)n1)NNc1ccccn1 [KPT-335, Verdinexor]",effect on HBV,[5]; added at 3 or 5 dpi,no effect
same,HBeAg in the medium by ELISA,[5]; drug added at 3 or 5 dpi,no apparent effect
same,HBsAg in the medium by ELISA,[5]; drug added at 3 or 5 dpi,no apparent effect
same,HBeAg in the medium by ELISA,[5]; [8],inhibit; also recorded: complete inhibition
same,HBsAg in the medium by ELISA,[5]; [8],inhibit; also recorded: complete inhibition
same,HBV DNA synthesis,[6],strongly inhibited
same,HBV RNA encapsidation (cytoplasmic capsid-associated pgRNA),[6],strongly inhibited
same,formation of HBc capsids,[6],strongly inhibited
same,HBV virion secretion,"[1]; 0.5 μM, co-treatment",almost completely block
same,"secretion of naked capsids, sensitivity in contrast to virions","[1]; 0.1, 0.25, 0.5 and 1 μM",much less sensitive
same,blocking virion secretion,[1]; drug added at 1-day post infection,not effective
same,anti-proliferation effect,"[2]; below 0.25 μM, alamarBlue and CCK-8",No significant anti-proliferation effect
same,capsid protein,[7],no significant effect
same,capsid-associated RNA (RNA encapsidation),[7],no significant effect
